Results as given in patent publication US20260060908A1, “USE OF FATTY ACIDS FOR MICROBIOME BENEFIT AND COMPOSITIONS COMPRISING THE SAME” (Conopco, Inc., d/b/a UNILEVER, priority 2022, published 2026).

test system: S. epidermidis; assay: Growth of S. epidermidis in the presence of fatty acids (absorbance 620 nm growth curve); format: cell-based; settings: Staphylococcus epidermidis; oleic acid, linoleic acid at 0.01% and their combination; control = 100; read-out: % increase over control
Description: Experiments were carried out on the growth of S. Epidermidis in the presence of various fatty acids using the following procedure.
(§1) The microorganism (S. epidermidis or S. hominis as the case may be) was streaked on TSA agar plate and incubated at 37° C. for 24 hr
(§2) The test samples (200 μl) were added to 96 well plate, followed by addition of above set cultures (20 μl).
(§3) The 96 well plate was placed in a Tecan reader and absorbance was read at 620 nm for a period of 24-30 h with a kinetic interval of 1 h
(§4) The values obtained is plotted as a growth curve with X-axis representing time in hour and Y-axis as absorbance read at 620 nm.

Compared with `CCCCCCCC/C=C\CCCCCCCC(=O)O` [Example 11, Oleic acid], `CCCCC/C=C\C/C=C\CCCCCCCC(=O)O` [Example 12, Linoleic acid] is lower in activity at 0.01 %: 135% for the first, 132% for the second.

same assay, conditions: Staphylococcus epidermidis; unsaturated fatty acids at 0.001%; at the end of 24 to 30 hours; control = 100.0; read-out: % increase over control

Going from `CCCCCCCC/C=C\CCCCCCCC(=O)O` [Example 7, Oleic acid] to `CCCCCC/C=C\CCCCCCCC(=O)O` [Example G, Palmitoleic acid, reference compound], the activity at 0.001 % falls from 132% to 98.4%.

Molecule `CCCCC/C=C\C/C=C\CCCCCCCC(=O)O` [Example 8, Linoleic acid] has an activity at 0.001 % of 146%.

test system: S. Hominis; assay: Growth of S. hominis in the presence of fatty acids (absorbance 620 nm growth curve); format: cell-based; settings: saturated fatty acids, concentration per example, at the end of 24 to 30 hours, control = 100.0
Description: • 5% of fatty acid stock is made in DMSO-0.5 g in 10 ml of DMSO • 2.68% of fatty acid (Total volume 5 ml) is made with 2.68 ml of 5% fatty acid stock+[…] of DMSO+0.45 ml of Tween 80. • Test samples: 50 μl 2.68% stock in 4.95 ml 1/10th diluted TSB (test samples)
as §1
Plate cultures of the microorganism was used to set up 0.3 OD620nm (corresponding to log 10^8 CFU/ml) in 1× PBS (pH7.4)
as §2, §3, §4
Experiments similar to those in Table-1 were carried out except that the microorganism used was S. Hominis.

Compared with `CCCCCCCCCCCC(=O)O` [D, Lauric acid], `CCCCCCCCCCCCCC(=O)O` [E, myristic acid] is lower in “% increase over control” value: 63.0% for the first, 52.0% for the second.

First: CCCCCCCCCCCCCCCCCCCC(=O)O [Example 5, arachidic acid]
Second: CCCCCCCCCCCCCCCCCCCCCCCC(=O)O [Example 6, lignoceric acid]
The “% increase over control” value of the first is lower: 123.0% for the first, 153.0% for the second.

With `CCCCCCCCCCCCCCCC(=O)O` [Example F, palmitic acid] the “% increase over control” value was 104.0%.
